In assay [1] the test system is Mus musculus. The assay can be described thus: Effect on clonic phase of audiogenic seizures in DBA/2 mice at 3.3-200 umol/kg, ip. The assay is classed as functional. Conditions: DBA/2, ip.
The target of assay [2] is T1, Glutamate receptor ionotropic, AMPA (Rattus norvegicus, UniProt P19490+P19491+P19492+P19493). The assay can be described thus: Ability to inhibit kainate-induced increase of calcium in rat cerebellar granule cells expressing AMPA receptor. The assay is classed as functional.
Assay [3] concerns Mus musculus. Description: Effect on tonic phase of audiogenic seizures in DBA/2 mice at 3.3-200 umol/kg, ip. Conditions: DBA/2, ip. It counts as functional.
The subject of assay [4] is Mus musculus. The assay can be described thus: Protective index [PI = TD50/ED50 (from clonic phase of the audiogenic seizures)] in mice at 3.3-200 umol/kg, ip. The assay is classed as functional.
The test system of assay [5] is Mus musculus. Description: Effect on locomotion in mice assessed by rotarod test at 3.3-200 umol/kg, ip. It counts as functional. Background: Falling from the rotarod earlier than controls is read as motor impairment.
The target in assay [6] is T1, Glutamate receptor ionotropic, AMPA. The assay can be described thus: Displacement of [3H]CP-526427 from AMPA receptor in rat forebrain membranes. The assay is classed as cell membranes, Membrane. Background: Loss of bound radioactivity is the signal in a displacement assay; it reports binding, not function.
Assay [7] addresses Glutamate receptor ionotropic, kainate 1 (Rattus norvegicus, UniProt P22756). The assay can be described thus: Ability to inhibit domoic acid-induced increase of calcium in rat HEK293 cells expressing GluR5. It counts as functional, cell-based.

One may read the ED50 as the midpoint of the dose-response relation. Read a high ED50 as weaker potency. As a reminder, the IC50 is the concentration needed to halve the response being measured. For orientation: TD50 means the 50% point of the dose-response relation for the toxic effect studied. Lower therefore signals greater toxicity.

Glutamate receptor ionotropic, kainate 1, sequence (P22756 whole entry): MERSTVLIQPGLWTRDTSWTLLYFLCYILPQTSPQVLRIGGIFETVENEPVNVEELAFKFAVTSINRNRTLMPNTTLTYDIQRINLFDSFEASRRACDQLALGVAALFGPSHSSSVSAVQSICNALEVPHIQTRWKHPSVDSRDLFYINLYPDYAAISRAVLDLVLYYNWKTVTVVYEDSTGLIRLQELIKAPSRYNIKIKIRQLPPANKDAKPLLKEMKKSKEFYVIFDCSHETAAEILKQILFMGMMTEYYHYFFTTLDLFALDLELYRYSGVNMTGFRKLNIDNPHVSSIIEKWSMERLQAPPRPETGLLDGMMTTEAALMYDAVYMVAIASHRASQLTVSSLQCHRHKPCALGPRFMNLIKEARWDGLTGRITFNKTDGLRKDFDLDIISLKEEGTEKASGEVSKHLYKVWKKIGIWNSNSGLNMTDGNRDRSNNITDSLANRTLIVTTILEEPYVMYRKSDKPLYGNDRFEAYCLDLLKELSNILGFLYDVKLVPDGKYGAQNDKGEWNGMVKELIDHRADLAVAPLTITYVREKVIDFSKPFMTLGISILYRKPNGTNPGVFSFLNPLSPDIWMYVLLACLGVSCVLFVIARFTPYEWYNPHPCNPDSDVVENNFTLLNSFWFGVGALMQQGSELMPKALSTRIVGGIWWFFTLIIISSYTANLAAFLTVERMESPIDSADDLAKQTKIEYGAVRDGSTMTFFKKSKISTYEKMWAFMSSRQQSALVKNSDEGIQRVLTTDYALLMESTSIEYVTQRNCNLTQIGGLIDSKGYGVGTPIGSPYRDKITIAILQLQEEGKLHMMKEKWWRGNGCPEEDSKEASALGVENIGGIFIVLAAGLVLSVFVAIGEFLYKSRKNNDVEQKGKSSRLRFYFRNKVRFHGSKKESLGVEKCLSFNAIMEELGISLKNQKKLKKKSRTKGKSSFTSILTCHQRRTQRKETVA

For `CNC(=O)N1N=C(c2ccc(N)cc2)c2cc3c(cc2CC1=O)OCCO3`, the ED50 in the assay with Mus musculus [1] was 45.5 µmol/kg; in the assay on Mus musculus [3], 32.1 µmol/kg. In assay [2], the IC50 stood at 5.4 µM. Moreover, the “Ratio TD50/ED50” value in the assay on Mus musculus [4] is 2.1. Further, in the assay with Mus musculus [5], the TD50 came out at 96.4 µmol/kg.

Take `Cc1cc(C2=NNC(=O)Cc3cc4c(cc32)OCCO4)ccc1N`: the 50% effective dose (ED50) in the assay on Mus musculus [1] is 48.2 µmol/kg; with Mus musculus [3], 24.6 µmol/kg. Moreover, the “Ratio TD50/ED50” value in the assay with Mus musculus [4] came out at 2.4. For the same compound, in the assay on Mus musculus [5], the TD50 is 115 µmol/kg. Also, the IC50 in assay [6] was 1.8 µM.

On to `Nc1ccc(C2=NNC(=O)Cc3cc4c(cc32)OCCO4)c(Cl)c1`, for which the ED50 in the assay with Mus musculus [1] and in the assay with Mus musculus [3] was greater than 100 µmol/kg throughout. For the same compound, the half-inhibitory concentration (IC50) in assay [6] was greater than 20 µM.

As for `Nc1ccc(C2=NNC(=O)Cc3cc4c(cc32)OCO4)cc1`, in assay [2], the 50% inhibitory concentration (IC50) came to 12 µM. Besides, the “Ratio TD50/ED50” value with Mus musculus [4] is 4.5.

Consider `CCNC(=O)N1N=C(c2ccc(N)cc2)c2cc3c(cc2CC1=O)OCO3`, for which the IC50 in assay [2] is 11 µM; in assay [6] it was 12 µM. Also, the “Ratio TD50/ED50” value in the assay with Mus musculus [4] is on record as 3.8.

For `Nc1ccc(C2=NNC(=O)Cc3cc4c(cc32)OCCO4)cc1Cl`, the 50% effective dose (ED50) in the assay with Mus musculus [1] was 70.8 µmol/kg; in the assay on Mus musculus [3], 27.2 µmol/kg. For the same compound, in the assay on Mus musculus [4], the “Ratio TD50/ED50” value turned out to be 1.4. In addition, in the assay with Mus musculus [5], the TD50 is 99.1 µmol/kg. The same compound registered an IC50 in assay [6] of 2 µM.

For the compound `Nc1ccc(C2=NNC(=O)Cc3cc4c(cc32)OCCO4)cc1`, the ED50 stood at 61.3 µmol/kg in the assay on Mus musculus [1] and 44.8 µmol/kg in the assay on Mus musculus [3]. Also, the half-maximal inhibitory concentration (IC50) in assay [2] is 2.9 µM; in assay [7], greater than 10 µM. The “Ratio TD50/ED50” value in the assay with Mus musculus [4] came out at 1.7. This compound displayed a TD50 with Mus musculus [5] of 102 µmol/kg.

Regarding `CCNC(=O)N1N=C(c2ccc(N)cc2)c2cc3c(cc2CC1=O)OCCO3`, the ED50 in the assay with Mus musculus [1] turned out to be 48.1 µmol/kg; in the assay with Mus musculus [3], 41.7 µmol/kg. Moreover, the “Ratio TD50/ED50” value with Mus musculus [4] stood at 2. This compound also returned a TD50 with Mus musculus [5] of 95.3 µmol/kg. Besides, in assay [6], the IC50 is 9.3 µM.

For the compound `CNC(=O)N1N=C(c2ccc(N)cc2)c2cc3c(cc2CC1=O)OCO3`, in the assay with Mus musculus [4], the “Ratio TD50/ED50” value is 3.9.

With `CC1=NN=C(c2ccc(N)cc2)c2cc3c(cc2C1)OCO3` [GYKI-52466], the “Ratio TD50/ED50” value with Mus musculus [4] is listed as 2.1.

The values above are taken from ChEMBL document CHEMBL1148548, “New 7,8-ethylenedioxy-2,3-benzodiazepines as noncompetitive AMPA receptor antagonists” (Bioorg Med Chem Lett, 2006).
